# Assay results taken from patent US20240293416A1, “TREATMENT OF LIVER DISORDERS WITH A THR-ß AGONIST” (Terns Pharmaceuticals, Inc., priority 2021, published 2024).
# “Also recorded” adds a separate entry of the source.
# Assays:
# [1] = Single ascending dose trial: plasma and urine pharmacokinetics; type: in vivo, human; settings: for fe (fraction of dose excreted in urine as unmodified Compound 1): fasted, n = 6, mean (% CV)
# Experimental: A single-ascending dose clinical trial of Compound 1 (potassium salt) was performed.
# PK parameters were estimated via noncompartmental methods using Phoenix WinNonlink (Certara, LP, Princeton, NJ). Concentrations of serum pharmacodynamic (PD) biomarkers apolipoprotein B (Apo B) and sex hormone binding globulin (SHBG) were measured using an immunoassay and serum lipids were determined using spectrophotometry.
# [2] = Multiple ascending dose trial: adverse event and safety monitoring; type: in vivo, human; settings: for AEs by relationship to drug: Not related / AEs by relationship to drug: Possibly related / AEs by relationship to drug: Related / AEs by relationship to drug: Unlikely related / Any AE, all CTCAE grades / Grade 1 / Grade 2 or higher / Serious AEs: N = 6
# Experimental: A multiple-ascending dose clinical trial of Compound 1 was performed.
# [3] = Capsule stability studies under stressed conditions; type: physicochemical
# Experimental: A direct encapsulation (DE) formulation study of Compound 1 was carried out. This work included DE process development for the preparation of 1 mg, 3 mg, 10 mg, 50 mg and placebo capsules by a semi-automatic or automatic capsule filling machine. Ingredients, ratios, filling weight, flowability and uniformity of the formulation were all evaluated. The developed processes are suitable for the manufacture of Compound 1 drug products for future clinical studies.
# Silica gel desiccant was subsequently proposed for the packaging and proven to be effective to mitigate the formation of the impurity.
# The effectiveness of the silica gel desiccant in minimizing the degradation was evaluated through comparative stability studies with or without desiccant included in the primary packaging. […] Therefore, packaging with 1 g desiccant was determined to improve product quality and increase product shelf life.
# mouse NASH model = assay: High fat diet + CCl4 mouse NASH model; type: in vivo, C57BL/6J mice
# Experimental: C57BL/6J mice were fed a high fat diet for 10 weeks to induce obesity (>38 g BW). Obese mice were injected intraperitoneally (i.p.) twice a week for four weeks with 0.5 μl/g 25% CCl4 (formulated in olive oil) to induce fibrosis, and one group of normal BW mice were injected i.p. twice a week for four weeks with olive oil to serve as a healthy control. […] On CCl4 dosing days, CCl4 was administered at 4 hours post compound or vehicle dosing. On day 27, all animals were fasted for about 16 hours before terminal euthanasia. On day 28, all animals were sacrificed and various biological parameters were analyzed. Total body, liver, heart and brain weight were measured and changes in liver and heart weight were normalized using brain weight.
# Liver samples were collected for whole transcriptome analysis by RNA sequencing (RNAseq). RNAseq library (n=5 per group) preparation and sequencing was performed using Illumina standard protocols. Alignment of sequencing reads was performed using STAR aligner software and read counts were estimated using RSEM. Differentially expressed genes (compared to vehicle-treated NASH control mice) were determined using EdgeR software. Gene ontology analysis was performed using Advaita software with fold-change and adjusted p-value cutoffs of >1.5 and <0.05, respectively. Gene ontologies were derived from the Gene Ontology Consortium database (2019 Apr. 26) (Ashburner et al., Gene ontology: Tool for the unification of biology. Nature Genetics 25(1): 25-9 (2000); Gene Ontology Consortium, Creating the Gene Ontology Resource: Design and Implementation. Genome Research 11: 1425-1433 (2001)).
# [4] = Multiple ascending doses in healthy subjects with elevated LDL-c: PK; type: in vivo, human; settings: 1, 3, 6 or 10 mg once daily for 14 days
# Source text: Secondary Objectives: Evaluate the PK and PD of Compound 1 in healthy subjects with elevated LDL-c following multiple ascending doses of Compound 1.
# BCRP = molecular target: T1, BCRP (Homo sapiens, UniProt Q9UNQ0); assay: In vitro transporter inhibition, BCRP; type: in vitro ADME
# T1 sequence (Q9UNQ0 1-655): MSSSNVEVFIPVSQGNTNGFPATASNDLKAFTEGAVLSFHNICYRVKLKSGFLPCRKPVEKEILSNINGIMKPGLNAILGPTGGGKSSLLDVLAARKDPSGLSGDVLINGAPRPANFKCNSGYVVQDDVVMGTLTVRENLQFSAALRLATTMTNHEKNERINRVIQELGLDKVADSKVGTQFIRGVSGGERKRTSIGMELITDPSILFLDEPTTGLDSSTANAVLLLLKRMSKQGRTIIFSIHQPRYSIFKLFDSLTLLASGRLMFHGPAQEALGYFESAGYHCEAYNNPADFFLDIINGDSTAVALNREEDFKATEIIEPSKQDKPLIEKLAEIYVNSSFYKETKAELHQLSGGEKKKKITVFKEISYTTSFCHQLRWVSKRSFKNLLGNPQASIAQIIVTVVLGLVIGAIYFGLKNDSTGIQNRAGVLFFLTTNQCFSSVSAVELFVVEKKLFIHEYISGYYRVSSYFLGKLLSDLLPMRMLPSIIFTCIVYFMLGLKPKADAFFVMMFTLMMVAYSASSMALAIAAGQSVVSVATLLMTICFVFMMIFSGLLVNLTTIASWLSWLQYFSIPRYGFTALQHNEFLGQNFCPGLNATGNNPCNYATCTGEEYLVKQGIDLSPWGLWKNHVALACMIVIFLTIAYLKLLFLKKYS
# [5] = 14-day daily dosing up to 10 mg
smiles,measurement,setting,value
"N#Cc1nn(-c2cc(Cl)c(Oc3n[nH]c(=O)c4ccccc34)c(Cl)c2)c(=O)[nH]c1=O [Compound 1, 2-(3,5-dichloro-4-((4-oxo-3,4-dihydrophthalazin-1-yl)oxy)phenyl)-3,5-dioxo-2,3,4,5-tetrahydro-1,2,4-triazine-6-nitrile]",renal excretion,[1]; all single doses,Minimal renal excretion
same,fe (fraction of dose excreted in urine as unmodified Compound 1),[1]; single 3 mg dose,"2.95 (62) % dose, urine"
same,fe (fraction of dose excreted in urine as unmodified Compound 1),[1]; single 10 mg dose,"2.05 (74) % dose, urine"
same,fe (fraction of dose excreted in urine as unmodified Compound 1),[1]; single 30 mg dose,"1.78 (35) % dose, urine"
same,fe (fraction of dose excreted in urine as unmodified Compound 1),[1]; single 60 mg dose,"1.53 (53) % dose, urine"
same,"dose proportionality of exposures (AUC, Cmax)",[1]; single doses 3-60 mg,approximately dose-proportional; also recorded: linear and dose-proportional plasma exposures with low variability
same,AEs by relationship to drug: Not related,[2]; 3 mg once daily for 14 days,1 (16.7%) n (%)
same,AEs by relationship to drug: Possibly related,[2]; 3 mg once daily for 14 days,0 n (%)
same,AEs by relationship to drug: Related,[2]; 3 mg once daily for 14 days,0 n (%)
same,AEs by relationship to drug: Unlikely related,[2]; 3 mg once daily for 14 days,0 n (%)
same,"Any AE, all CTCAE grades",[2]; 3 mg once daily for 14 days,1 (16.7%) n (%)
same,Grade 1,[2]; 3 mg once daily for 14 days,1 (16.7%) n (%)
same,Grade 2 or higher,[2]; 3 mg once daily for 14 days,0 n (%)
same,Serious AEs,[2]; 3 mg once daily for 14 days,0 n (%)
same,AEs by relationship to drug: Not related,[2]; 6 mg once daily for 14 days,0 n (%)
same,AEs by relationship to drug: Possibly related,[2]; 6 mg once daily for 14 days,1 (16.7%) n (%)
same,AEs by relationship to drug: Related,[2]; 6 mg once daily for 14 days,0 n (%)
same,AEs by relationship to drug: Unlikely related,[2]; 6 mg once daily for 14 days,0 n (%)
same,"Any AE, all CTCAE grades",[2]; 6 mg once daily for 14 days,1 (16.7%) n (%)
same,Grade 1,[2]; 6 mg once daily for 14 days,1 (16.7%) n (%)
same,Grade 2 or higher,[2]; 6 mg once daily for 14 days,0 n (%)
same,Serious AEs,[2]; 6 mg once daily for 14 days,0 n (%)
same,AEs by relationship to drug: Not related,[2]; 10 mg once daily for 14 days,2 (33.3%) n (%)
same,AEs by relationship to drug: Possibly related,[2]; 10 mg once daily for 14 days,0 n (%)
same,AEs by relationship to drug: Related,[2]; 10 mg once daily for 14 days,0 n (%)
same,AEs by relationship to drug: Unlikely related,[2]; 10 mg once daily for 14 days,0 n (%)
same,"Any AE, all CTCAE grades",[2]; 10 mg once daily for 14 days,2 (33.3%) n (%)
same,Grade 1,[2]; 10 mg once daily for 14 days,2 (33.3%) n (%)
same,Grade 2 or higher,[2]; 10 mg once daily for 14 days,0 n (%)
same,Serious AEs,[2]; 10 mg once daily for 14 days,0 n (%)
same,ALT increase to ≥2×ULN,[2]; 14-day daily dosing,no treated subject
same,"ECGs, cardiac biomarkers, or other clinical lab tests",[2]; 14-day daily dosing,No remarkable changes
same,TSH or free T3,[2]; 14-day daily dosing,without clear change
same,free T4,[2]; 14-day daily dosing,declined in dose-dependent fashion
same,free testosterone,[2]; 14-day daily dosing,no significant change in free levels
same,total testosterone,[2]; 14-day daily dosing,Dose-dependent total testosterone increases
same,Heart rate and blood pressure,[2]; [5],remained stable throughout the study
same,grade of AEs,[2]; [5],Grade 1
same,tolerability,[2]; [5],overall well-tolerated
same,GGT,"[2]; 14-day daily dosing, values remaining below ULN",Dose-dependent GGT increases
same,capsule short stability,"[3]; 3 mg strength capsule, 60° C./75% RH, two weeks",a degradation impurity formed
same,effect of desiccant packaging on degradation impurities,"[3]; 1, 3, 10 and 50 mg capsules, 40° C./75% RH",significantly retarded the formation of degradation impurities
same,liver fibrosis (histology),"mouse NASH model; 3 and 10 mpk, 28 days",significantly reduced liver fibrosis
same,liver inflammation (histology),mouse NASH model; 28 days,trend in inflammation reduction
same,liver steatosis (histology),"mouse NASH model; all doses tested, 28 days",significantly reduced steatosis at all doses tested
same,"serum total cholesterol, triglycerides and ALT","mouse NASH model; all doses tested, 28 days",significantly reduced
same,expression of genes associated with collagen extracellular matrix and hepatic stellate cell activation,mouse NASH model; liver RNAseq vs NASH control mice,significant effect
same,liver/brain weight,mouse NASH model; orally once a day for 28 days,significantly reduced
same,total body weight or heart/brain weight,mouse NASH model; orally once a day for 28 days,no effect
same,steady state plasma AUC0-∞ sufficient to ensure efficacy,mouse NASH model; preclinical animal models,"approximately 3,320 ng*hg/mL"
same,PK dose proportionality and variability,[4],dose-proportional PK with low variability
Cn1cc(C(=O)O)c2ccc(C3CCC(OCc4c(-c5c(Cl)cccc5Cl)noc4C4CC4)CC3)cc21 (stereo not shown) [Compound 2],IC50,BCRP,4.39 µM
